The test addresses T1, ACC1 from rat liver (Rattus norvegicus, UniProt P11497).
T1 construct: The livers (for ACC1 preparation) or skeletal muscle tissue (for ACC2 preparation) are removed; from tissue; host or cells: liver of male CD rats (fasted, then fed a high sucrose diet)
Briefly: Direct inhibition of ACC1 activity (14C-bicarbonate incorporation). Type of test: biochemical. Here is the method:
[1] Preparation of ACC1 and ACC2.
Male CD rats weighing 150-200 g are fasted for 2 days and then fed a high sucrose diet (AIN-76A rodent diet; Cat # D10001, Research Diets Inc., New Brunswick, N.J.), for 3 days at which time they are sacrificed by CO2 asphyxiation. The livers (for ACC1 preparation) or skeletal muscle tissue (for ACC2 preparation) are removed, rinsed in ice-cold phosphate-buffered saline (PBS), and homogenized in 5 volumes of homogenization buffer (50 mM potassium phosphate, pH 7.5, 10 mM EDTA, 10 mM 2-mercaptoethanol, 2 mM benzamidine, 0.2 mM phenylmethylsulfonylfluoride (PMSF), 5 mg/L each leupeptin, aprotinin, and antitrypsin) in a Waring® blender for 1 minute at 4° C. All subsequent operations are carried out at 4° C. The homogenate is made 3% with respect to polyethylene glycol (PEG) by the addition of 50% PEG solution and centrifuged at 20,000×g for 15 minutes. The resulting supernatant is adjusted to 5% PEG with the addition of 50% PEG solution and stirred for 5 minutes. The pellet (contains ACC activity) is collected by centrifugation at 20,000×g for 20 minutes, rinsed with Ice-cold doubly distilled water to remove excess PEG and re-suspended in one-fourth the original homogenate volume with homogenization buffer. Ammonium sulfate (200 g/liter) is slowly added with stirring. After 45 minutes the enzyme is collected by centrifugation for 30 minutes at 20,000×g, re-suspended in 10 ml of 50 mM HEPES, pH7.5, 0.1 mM DTT, 1.0 mM EDTA, and 10% glycerol and desalted on a Sephadex™ G-25 column (2.5 cm-x 50 cm) (Pharmacia, Piscataway N.J. now GE Healthcare) […] equilibrated with the same buffer. The desalted enzyme preparation is stored in aliquots at −70° C. Immediately prior to use, frozen ACC1 or ACC2 aliquots are thawed, diluted to 500 μg/ml in buffer containing 50 mM HEPES, pH7.5, 1.0 mM MgCl2, 10 mM tripotassium citrate, 2.0 mM dithiothreitol (DTT), and 0.75 mg/ml fatty acid-free bovine serum albumin (BSA) and pre-incubated at 37° C. for 30 minutes.
[2] Measurement of ACC inhibition. The procedures for measuring ACC1 inhibition and ACC2 inhibition are identical except for the source of the isozyme. For measurement of ACC activity and assessment of ACC inhibition, test compounds are dissolved in dimethylsulfoxide (DMSO) and 1 μL aliquots are placed in 0.5 ml polypropylene tubes. Control tubes contain 1 μL of DMSO alone. Tubes are incubated at 37° C. in a constant temperature water bath. […] The reaction is then initiated by the addition of 10 μL of preincubated ACC fraction prepared as described above. After 7 minutes the reaction is terminated by the addition of 50 μL of 6N HCl and a 150 μL aliquot of the reaction mixture is transferred to glass scintillation vials and evaporated to dryness at 90° C. for at least 1 hour. The dried vials are then cooled, 0.5 ml of water and 5.5 ml of Ready Safe liquid scintillation fluid (Beckman Coulter Inc., Fullerton, Calif.) are added, and the radioactivity is determined using a liquid scintillation counter. Tubes that received HCl before ACC served as blanks.

Structures can show the parent of a compound that is named as a salt.

Regarding `COc1ccc2c(c1)OC1(CCN(C(=O)c3cc(C)c4[nH]ncc4c3)CC1)CC2=O` [Ex. A24, 7-methoxy-1′-[(7-methyl-1H-indazol-5-yl)carbonyl]spiro[chromene-2,4′-piperidin]-4(3H)-one], the IC50 (ACC1 from rat liver) was 122 nM.

Where the note is “ACC1 from rat liver”, `COc1cccc2c1C(=O)CC1(CCN(C(=O)c3cc(Cl)c4[nH]ncc4c3)CC1)O2` [B6, 1′-[(7-chloro-1H-indazol-5-yl)carbonyl]-5-methoxyspiro[chromene-2,4′-piperidin]-4(3H)-one] yielded a concentration for half-maximal inhibition (IC50) of 109 nM.

Regarding `Cc1cc2c(cc1C)C(=O)CC1(CCN(C(=O)c3cccc4cn[nH]c34)CC1)O2` [Ex. H1, 1′-(1H-indazol-7-ylcarbonyl)-6,7-dimethylspiro[chromene-2,4′-piperidin]-4(3H)-one], the IC50 (ACC1 from rat liver) was 163 nM. Regarding `O=C1CC2(CCN(C(=O)c3cccc(-c4cc[nH]n4)c3)CC2)Oc2ccc(OC(F)(F)F)cc21` [Ex. M13, 1′-[3-(1H-pyrazol-3-yl)benzoyl]-6-(trifluoromethoxy)spiro[chromene-2,4′-piperidin]-4(3H)-one], the IC50 (Table of Examples M1-M36) is 220 nM. On the same count and under the same terms, to `Cc1cc2c(cc1Cl)OC1(CCN(C(=O)c3cccc(-c4cc[nH]n4)c3)CC1)CC2=O` [Ex. M7, 7-chloro-6-methyl-1′-[3-(1H-pyrazol-3-yl)benzoyl]spiro[chromene-2,4′-piperidin]-4(3H)-one] belongs 140 nM. As to `Cc1cc2c(cc1Cl)C(=O)CC1(CCN(C(=O)c3cccc4cn[nH]c34)CC1)O2` [Ex. H5, 6-chloro-1′-(1H-indazol-7-ylcarbonyl)-7-methylspiro[chromene-2,4′-piperidin]-4(3H)-one], for the setting “ACC1 from rat liver”, the midpoint of inhibition, the IC50, lay at 321 nM.

Consider `Cc1cc2c(cc1C)C(=O)CC1(CCN(C(=O)c3ccc4[nH]nnc4c3)CC1)O2` [Ex. L39, 1′-(1H-1,2,3-benzotriazol-5-ylcarbonyl)-6,7-dimethylspiro[chromene-2,4′-piperidin]-4(3H)-one trifluoroacetic acid salt], for which the concentration for half-maximal inhibition (IC50) (ACC1 from rat liver) was 362 nM. The same measure, in the same setting: for `O=C1CC2(CCN(C(=O)c3ccc4[nH]nnc4c3)CC2)Oc2ccc(Cl)cc21` [Ex. L38, 1′-(1H-1,2,3-benzotriazol-5-ylcarbonyl)-6-chlorospiro[chromene-2,4′-piperidin]-4(3H)-one] the value was less than 1000 nM; for `Cc1cc2c(cc1C)C(=O)CC1(CCN(C(=O)c3ccc4c(C)nn(C)c4c3)CC1)O2` [Ex. G3, 1′-[(1,3-dimethyl-1H-indazol-6-yl)carbonyl]-6,7-dimethylspiro[chromene-2,4′-piperidin]-4(3H)-one], 75.4 nM. The same measure, in the same setting: for `Cc1cc(C(=O)N2CCC3(CC2)CC(=O)c2cc(C(=O)N(C)C)ccc2O3)cc2cn[nH]c12` [Ex. A27, N,N-dimethyl-1′-[(7-methyl-1H-indazol-5-yl)carbonyl]-4-oxo-3,4-dihydrospiro[chromene-2,4′-piperidine]-6-carboxamide] the value was 125 nM.

For the compound `O=C1CC2(CCN(C(=O)c3cccc(-c4cc[nH]n4)c3)CC2)Oc2c(Cl)cc(Cl)cc21` [Ex. M35, 6,8-dichloro-1′-[3-(1H-pyrazol-3-yl)benzoyl]spiro[chromene-2,4′-piperidin]-4(3H)-one], for the setting “Table of Examples M1-M36”, 1400 nM corresponded to half-maximal inhibition (IC50). Regarding `CCc1cc(C(=O)N2CCC3(CC2)CC(=O)c2cc(Cl)c(C)cc2O3)cc2cn[nH]c12` [Ex. C4, 6-chloro-1′-[(7-ethyl-1H-indazol-5-yl)carbonyl]-7-methylspiro[chromene-2,4′-piperidin]-4(3H)-one], the 50% inhibitory concentration (IC50) (ACC1 from rat liver) came out at 30.6 nM. On to `COc1cc(C)cc2c1C(=O)CC1(CCN(C(=O)c3cccc(-c4cc[nH]n4)c3)CC1)O2` [Ex. M1, 5-methoxy-7-methyl-1′-[3-(1H-pyrazol-3-yl)benzoyl]spiro[chromene-2,4′-piperidin]-4(3H)-one], for which it took 37.5 nM to reach half-maximal inhibition (Table of Examples M1-M36) (IC50). Turning to `Cc1cc2c(cc1C)C(=O)CC1(CCN(C(=O)c3cccc(-n4cccn4)c3)CC1)O2` [Ex. P11, 6,7-Dimethyl-1′-[3-(1H-pyrazol-1-yl)benzoyl]spiro[chromene-2,4′-piperidin]-4(3H)-one], where the note is “Table of Examples P1-P15”, the IC50 was 399 nM. Where the note is “ACC1 from rat liver”, `Cc1cc(C)c2c(c1)OC1(CCN(C(=O)c3cc(C)c4[nH]ncc4c3)CC1)CC2=O` [Ex. A29, 5,7-dimethyl-1′-[(7-methyl-1H-indazol-5-yl)carbonyl]spiro[chromene-2,4′-piperidin]-4(3H)-one] yielded an IC50 of 146 nM. `Cc1cc2c(cc1C)C(=O)CC1(CCN(C(=O)c3cc(-c4ccnn4C)ccc3Cl)CC1)O2` [Ex. P10, 1′-[2-chloro-5-(1-methyl-1H-pyrazol-5-yl)benzoyl]-6,7-dimethylspiro[chromene-2,4′-piperidin]-4(3H)-one] came in with an IC50 (Table of Examples P1-P15) of less than 3000 nM. For the compound `Cc1cc2c(cc1C)C(=O)CC1(CCN(C(=O)c3ccc4nccnc4c3)CC1)O2` [Ex. L45, 6,7-dimethyl-1′-(quinoxalin-6-ylcarbonyl)spiro[chromene-2,4′-piperidin]-4(3H)-one], under “ACC1 from rat liver”, the IC50 was less than 3000 nM. Same read-out and setting: to `COc1cc(C)c2c(c1)OC1(CCN(C(=O)c3cc(C)c4[nH]ncc4c3)CC1)CC2=O` [Ex. A28, 7-methoxy-5-methyl-1′-[(7-methyl-1H-indazol-5-yl)carbonyl]spiro[chromene-2,4′-piperidin]-4(3H)-one] belongs 138 nM. Turning to `Cc1cc2c(cc1C)C(=O)CC1(CCN(C(=O)c3cc(C)c4[nH]ncc4c3)CC1)O2` [Ex. A2, 6,7-dimethyl-1′-[(7-methyl-1H-indazol-5-yl)carbonyl]spiro-[chromene-2,4′-piperidin]-4(3H)-one trifluoroacetic acid salt], the IC50 (ACC1 from rat liver) came out at 30.1 nM.

As to `CC(C)c1ccc2c(c1)C(=O)CC1(CCN(C(=O)c3cccc4cn[nH]c34)CC1)O2` [Ex. H10, 1′-(1H-indazol-7-ylcarbonyl)-6-isopropylspiro[chromene-2,4-piperidin]-4(3H)-one], inhibition (ACC1 from rat liver) was half-maximal at 693 nM (IC50). Turning to `COc1cc(Cl)cc2c1C(=O)CC1(CCN(C(=O)c3cccc(-c4ccn[nH]4)c3)CC1)O2` [Ex. O3, 7-chloro-5-methoxy-1′-[3-(1H-pyrazol-5-yl)benzoyl]spiro[chromene-2,4′-piperidin]-4(3H)-one], the 50% inhibitory concentration (IC50) (Table of Examples O1-O4) is 455 nM. `Cc1cc2c(cc1Cl)C(=O)CC1(CCN(C(=O)c3cc(Br)cc4cn[nH]c34)CC1)O2` [Ex. J1, 1′-[(5-bromo-1H-indazol-7-yl)carbonyl]-6-chloro-7-methylspiro[chromene-2,4′-piperidin]-4(3H)-one]: under “ACC1 from rat liver”, half-maximal inhibition (IC50) required 345 nM.

For the setting “ACC1 from rat liver”, `CCc1nc2cc(C(=O)N3CCC4(CC3)CC(=O)c3c(OC)cccc3O4)ccc2n1-c1cccc(OC)c1` [Ex. L31, 1′-{[2-ethyl-1-(3-methoxyphenyl)-1H-benzimidazol-5-yl]carbonyl}-5-methoxyspiro[chromene-2,4′-piperidin]-4(3H)-one] displayed an IC50 of 1140 nM. On the same count and under the same terms, to `Cc1cc2c(cc1Cl)C(=O)CC1(CCN(C(=O)c3ccc4ocnc4c3)CC1)O2` [Ex. L46, 1′-(1,3-benzoxazol-5-ylcarbonyl)-6-chloro-7-methylspiro[chromene-2,4′-piperidin]-4(3H)-one] belongs 369 nM; to `Cc1cc2c(cc1Cl)C(=O)CC1(CCN(C(=O)c3ccc4c(cnn4C)c3)CC1)O2` [Ex. D3, 6-chloro-7-methyl-1′-[(1-methyl-1H-indazol-5-yl)carbonyl]spiro[chromene-2,4′-piperidin]-4(3H)-one], 250 nM; to `Cc1cc(C(=O)N2CCC3(CC2)CC(=O)c2cc(C(N)=O)ccc2O3)cc2cn[nH]c12` [Ex. A10, 1′-[(7-methyl-1H-indazol-5-yl)carbonyl]-4-oxo-3,4-dihydrospiro[chromene-2,4′-piperidine]-6-carboxamide], 38.2 nM.

Under “ACC1 from rat liver”, `O=C1CC2(CCN(C(=O)c3cccc4cn[nH]c34)CC2)Oc2cc(F)ccc21` [Ex. H19, 7-fluoro-1′-(1H-indazol-7-ylcarbonyl)spiro[chromene-2,4′-piperidin]-4(3H)-one] gave an IC50 of 2350 nM.

Broadly, the IC50 is the concentration that inhibits the measured activity by half. Read a high IC50 as weaker potency in that assay.

The record behind these values is patent US20090270435A1 (priority 2006, published 2009).
